Measured values: ChEMBL document CHEMBL1121862, “Synthesis of 3-hydroxycyclophosphamide and studies related to its possible role in the metabolism of cyclophosphamide” (1981)

Experiments:
Mus musculus [1] = organism: Mus musculus; test: animal or person; details: ip
Mus musculus [2] = organism: Mus musculus; test: animal or person; details: ip; remark: listed apart in the source

O=P1(N(CCCl)CCCl)NCCCO1 (configuration not stated) [CYCLOPHOSPHAMIDE ANHYDROUS]
ILS at 200 mg/kg (Mus musculus [1]): > 150% | ILS at 100 mg/kg (Mus musculus [2]): > 100%
